The text below walks through data of paper PMC12864786 (Nature Communications, 2026).

In data set [1] the target is MBP-tagged Class III PPK2 enzyme from Pedobacter sp. (PED), full-length (Pedobacter sp.). In words: AUC.
Another data set concerns the target T1, ARE (Algibacter luteus, UniProt A0A1M6FUJ9).
T1 sequence (A0A1M6FUJ9 1-283): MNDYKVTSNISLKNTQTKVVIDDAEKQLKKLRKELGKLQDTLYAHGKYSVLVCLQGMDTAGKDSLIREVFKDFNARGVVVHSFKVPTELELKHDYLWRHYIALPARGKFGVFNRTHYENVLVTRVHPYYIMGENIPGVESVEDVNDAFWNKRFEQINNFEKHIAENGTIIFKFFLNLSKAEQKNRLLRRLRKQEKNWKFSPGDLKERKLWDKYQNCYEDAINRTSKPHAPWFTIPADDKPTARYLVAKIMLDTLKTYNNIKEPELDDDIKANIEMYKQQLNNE
Description: HPLC product distribution, end point […] min. In kind it is biochemical. As to conditions: 4 mM nucleotide, PolyP 65 mM phosphate units, 10 mM Mn2+, 50 mM MOPS-NaOH pH 7.0, 37 °C.

For another data set, the target named is T2, CHU (Cytophaga hutchinsonii, UniProt A0A6N4SMB5).
T2 sequence (A0A6N4SMB5 1-305): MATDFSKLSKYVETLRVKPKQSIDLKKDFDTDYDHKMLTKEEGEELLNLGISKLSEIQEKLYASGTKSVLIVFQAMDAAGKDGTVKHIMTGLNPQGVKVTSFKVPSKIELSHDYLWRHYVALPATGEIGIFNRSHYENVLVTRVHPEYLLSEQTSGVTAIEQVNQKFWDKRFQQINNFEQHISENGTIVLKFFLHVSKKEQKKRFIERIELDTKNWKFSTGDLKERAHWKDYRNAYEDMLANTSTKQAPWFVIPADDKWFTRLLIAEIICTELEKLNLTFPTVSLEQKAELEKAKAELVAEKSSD
Description: HPLC product distribution, end point […] min. It counts as biochemical. To be noted: 4 mM nucleotide, PolyP-60 65 mM phosphate units, 10 mM Mn2+, 50 mM MOPS-NaOH pH 7.0, 37 °C.

The data set “AUC” concerns the molecule itself. In words: AUC.

The term stoichiometry N denotes the number of molecules, sites or subunits per partner or assembly. Molecule “MBP-tagged Class III PPK2 enzyme from Pedobacter sp. (PED), full-length” registered a stoichiometry N in data set [1] of 2.

In the case of `Nc1nc2c(ncn2[C@@H]2O[C@H](COP(=O)(O)O)[C@@H](O)[C@H]2O)c(=O)[nH]1` [GMP], on ARE, the “Percent conversion to NTP” value was “PED and ARE exhibit weak activity against CMP, GDP, and GMP”. For the same molecule, the product distribution entry at CHU is recorded as “CHU produces significant amounts of GPn (guanine nucleotides with four or more phosphate groups)”.

Turning to `Nc1ncnc2c1ncn2[C@@H]1O[C@H](COP(=O)(O)O)[C@@H](O)[C@H]1O` [AMP], the product distribution result on CHU is “Product distribution of MAN and CHU under the same conditions”.

B1: MBP-tagged Class III PPK2 enzyme from Cytophaga hutchinsonii (CHU), full-length (enzyme, UniProt A0A6N4SMB5 1-305, looked up)
chain: MATDFSKLSKYVETLRVKPKQSIDLKKDFDTDYDHKMLTKEEGEELLNLGISKLSEIQEKLYASGTKSVLIVFQAMDAAGKDGTVKHIMTGLNPQGVKVTSFKVPSKIELSHDYLWRHYVALPATGEIGIFNRSHYENVLVTRVHPEYLLSEQTSGVTAIEQVNQKFWDKRFQQINNFEQHISENGTIVLKFFLHVSKKEQKKRFIERIELDTKNWKFSTGDLKERAHWKDYRNAYEDMLANTSTKQAPWFVIPADDKWFTRLLIAEIICTELEKLNLTFPTVSLEQKAELEKAKAELVAEKSSD
Turning to B1, the “stoichiometry N” value in the data set “AUC” is 2.
